Results on ten compounds are retold here after patent publication US11051515B2, “3-acyl-benzamides and their use as herbicides” (Bayer Aktiengesellschaft, priority 2017, dated 2021).

Test [1] concerns LOLMU. Description: Pre-emergence action against LOLMU. The note with it: Lolium multiflorum, 504 h, dosage 320 g/ha, scored visually after 3 weeks vs untreated controls, read-out: Pre-emergence action against LOLMU (herbicidal activity). In kind it is in vivo, Lolium multiflorum. In outline: (§1)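 Seeds sown in sandy loam in wood-fiber pots and covered with soil. Greenhouse growth; visual damage scored after 3 weeks versus untreated controls (100% = dead, 0% = like control).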

For test [2], the system named is LOLMU. As to the kind of experiment: Post-emergence action against LOLMU. The note with it: Lolium multiflorum, 504 h, dosage 80 g/ha, visual assessment about 3 weeks after treatment vs untreated controls, read-out: Post-emergence action against LOLMU (herbicidal action in percent). It counts as in vivo, Lolium multiflorum. In outline: (§2)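 Weeds grown in sandy loam in greenhouse, treated at one-leaf stage (2–3 weeks after sowing) with WP or EC formulations sprayed as aqueous suspension/emulsion at 600 to […] water with 0.2% wetting agent. Visual rating after about 3 weeks versus untreated controls, as % herbicidal action (100% = plants dead, 0% = like control).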

Test [3] deals with SETVI. Description: Pre-emergence action against SETVI. The note with it: for pest or weed control at 320 g/ha: Setaria viridis, 504 h, pre-emergence, dosage 320 g/ha, scored visually after 3 weeks vs untreated controls, read-out: SETVI (Table B8, pre-emergence herbicidal activity). In kind it is in vivo, Setaria viridis. In outline:
as §1

In test [4] the test system is AMARE. As to the kind of experiment: Post-emergence action against AMARE. The note with it: for pest or weed control at 80 g/ha: Amaranthus retroflexus, 504 h, post-emergence, dosage 80 g/ha, visual assessment about 3 weeks after treatment vs untreated controls, read-out: Post-emergence action against AMARE (herbicidal action in percent); for Herbicidal efficacy against AMARE: 5 g of a.i./ha. It counts as in vivo, Amaranthus retroflexus. In outline: as §2

For test [5], the system named is MATIN. Description: Pre-emergence action against MATIN. In kind it is in vivo, Matricaria inodora. The note with it: for pest or weed control at 320 g/ha: Tripleurospermum inodorum, 504 h, Dosage 320 g/ha, pre-emergence. In outline:
as §1

In test [6] the test system is POLCO. As to the kind of experiment: Pre-emergence action against POLCO. It counts as in vivo, Polygonum convolvulus. The note with it: for pest or weed control at 320 g/ha: Fallopia convolvulus, 504 h, Dosage 320 g/ha, pre-emergence; for Herbicidal efficacy against POLCO: 80 g of a.i./ha. In outline:
as §1

Test [7] deals with CYPES. Description: Post-emergence action against CYPES. The note with it: for pest or weed control at 80 g/ha: Cyperus esculentus, 504 h, post-emergence, dosage 80 g/ha, visual assessment about 3 weeks after treatment vs untreated controls, read-out: Post-emergence action against CYPES (herbicidal action in percent). In kind it is in vivo, Cyperus esculentus. In outline:
as §2

The subject of test [8] is ABUTH. Description: Post-emergence action against ABUTH. The note with it: Abutilon theophrasti, 504 h; post-emergence, dosage 80 g/ha, visual assessment about 3 weeks after treatment vs untreated controls; read-out: Post-emergence action against ABUTH (herbicidal action in percent). It counts as in vivo, Abutilon theophrasti. In outline:
as §2

Test [9] deals with PHBPU. As to the kind of experiment: Pre-emergence action against PHBPU. The note with it: for pest or weed control at 320 g/ha: Ipomoea purpurea, 504 h, Dosage 320 g/ha, pre-emergence. It counts as in vivo, Pharbitis purpurea. In outline: as §1
In test [10] the test system is HORMU. As to the kind of experiment: Pre-emergence action against HORMU. The note with it: Hordeum murinum, 504 h, Dosage 320 g/ha. It counts as in vivo, Hordeum murinum. In outline:
as §1

Test [11] has as its system DIGSA. As to the kind of experiment: Pre-emergence action against DIGSA. In kind it is in vivo, Digitaria sanguinalis. The note with it: dosage 320 g/ha, scored visually after 3 weeks vs untreated controls. In outline: as §1
For test [12], the system named is LOLRI. Description: Post-emergence action against LOLRI. It counts as in vivo, Lolium rigidum. The note with it: Lolium rigidum, 504 h, dosage 80 g/ha, visual assessment about 3 weeks after treatment vs untreated controls, read-out: Post-emergence action against LOLRI (herbicidal action in percent). In outline:
as §2

The subject of test [13] is DIGSA. Description: Post-emergence action against DIGSA. It counts as in vivo, Digitaria sanguinalis. The note with it: dosage 80 g/ha, visual assessment about 3 weeks after treatment vs untreated controls. In outline:
as §2

The subject of test [14] is LOLRI. Description: Pre-emergence action against LOLRI. In kind it is in vivo, Lolium rigidum. The note with it: Lolium rigidum, 504 h, dosage 320 g/ha, scored visually after 3 weeks vs untreated controls, read-out: Pre-emergence action against LOLRI (herbicidal activity). In outline: as §1
The mark [15] stands for this setting: Table V2, pre-emergence, 20 g of a.i./ha.
[16] abbreviates: Table V3, pre-emergence, 80 g of a.i./ha.

Regarding `CC(=O)c1c(C(F)(F)F)ccc(C(=O)Nc2nnnn2C)c1Cl` [1-137, 3-acetyl-2-chloro-N-(1-methyl-1H-tetrazol-5-yl)-4-(trifluoromethyl)benzamide], the pest or weed control at 320 g/ha turned out to be 100% in test [1]; 100% in test [3]; 100% in [5]; 100% in test [6]; 90% in [9]. Besides, the pest or weed control at 80 g/ha in test [2] was 100%; in test [4] it was 90%; in test [7], 90%; in test [8], 90%.

Consider `Cn1nnnc1NC(=O)c1ccc(S(C)(=O)=O)c(C(=O)C2CC2)c1Cl` [1-129], for which the pest or weed control at 320 g/ha in test [1] was found to be 100%; in [3] it was 100%; in test [5], 100%; in [6], 80%; in [9] it was 100%. Besides, the pest or weed control at 80 g/ha in test [2] was determined as 80%; in test [4], 100%; in [7], 80%; in test [8] it was 90%. For the same compound, in [3] (setting [15]), the SETVI was determined as 90. Also, the “Herbicidal efficacy against AMARE” value in [4] (Table V15, post-emergence) is 100. The compound further returned an MATIN in test [5] (setting [15]) of 90. Besides, the “Herbicidal efficacy against MATIN” value in [5] (setting [16]) is 100. In [7] (Table V15, post-emergence, 5 g of a.i./ha), the “Herbicidal efficacy against CYPES” value is listed as 60.

For `CCC(=O)c1c(C(F)F)ccc(C(=O)Nc2nnnn2C)c1Cl` [1-165], the pest or weed control at 320 g/ha turned out to be 90% in test [10]; 100% in test [3]; 100% in test [5]; 90% in [6]; 100% in [9]; 100% in test [14]. For the same compound, the pest or weed control at 80 g/ha in test [4] was 90%; in [8], 90%; in test [12], 80%. Moreover, the “Pre-emergence action against DIGSA (herbicidal activity)” value in [11] came to 100%. Moreover, in [13], the “Post-emergence action against DIGSA (herbicidal action in percent)” value came out at 100%.

For `COc1c(C(=O)Nc2nnnn2C)ccc(C(F)(F)F)c1C(=O)C1CC1` [1-50], the pest or weed control at 320 g/ha came out at 100% in [1]; 100% in test [3]; 100% in test [5]; 90% in [6]; 100% in test [9]. The pest or weed control at 80 g/ha in test [2] came to 90%; in test [4], 90%; in test [7] it was 80%; in test [8], 100%.

In the case of `CSc1c(C(=O)Nc2nnnn2C)ccc(C(F)(F)F)c1C(C)=O` [1-58], the pest or weed control at 320 g/ha was 90% in test [1]; 100% in test [3]; 100% in [5]; 100% in test [6]; 100% in test [9]. For the same compound, the pest or weed control at 80 g/ha in test [2] worked out at 80%; in test [4], 100%; in test [7] it was 90%; in test [8], 100%.

With `CCCC(=O)c1c(C(F)(F)F)ccc(C(=O)Nc2nnnn2C)c1C` [1-16], the pest or weed control at 320 g/ha was 90% in [10]; 100% in test [3]; 100% in [5]; 80% in test [6]; 90% in test [9]; 100% in [14]. The pest or weed control at 80 g/ha in [4] is 100%; in test [8], 100%; in test [12], 80%. In addition, the “Pre-emergence action against DIGSA (herbicidal activity)” value in test [11] amounted to 100%. For the same compound, the “Post-emergence action against DIGSA (herbicidal action in percent)” value in test [13] amounted to 90%.

Take `CC(=O)c1c(C(F)F)ccc(C(=O)Nc2nnnn2C)c1Cl` [1-164]: the pest or weed control at 320 g/ha was found to be 90% in test [10]; 100% in test [3]; 100% in test [5]; 100% in [6]; 100% in test [9]; 100% in test [14]. The pest or weed control at 80 g/ha in test [4] was determined as 100%; in test [7] it was 90%; in test [8], 100%; in test [12], 90%.

With `Cc1c(C(=O)Nc2nnnn2C)ccc(S(C)(=O)=O)c1C(=O)C1CC1` [1-9], the pest or weed control at 80 g/ha in test [2] was 90%; in test [4] it was 90%; in [7] it was 80%; in [8], 90%. For the same compound, the pest or weed control at 320 g/ha in test [3] and in test [5] was 100% each time. Moreover, the “Herbicidal efficacy against SETVI” value in [3] (Table V9, pre-emergence, 80 g of a.i./ha) is on record as 100. For the same compound, in test [5] (Table V7, pre-emergence, 20 g of a.i./ha), the “Herbicidal efficacy against MATIN” value came out at 90. Also, the “Herbicidal efficacy against POLCO” value in [6] (Table V6, pre-emergence) was 40. Also, in [7] (Table V18, post-emergence, 20 g of a.i./ha), the “Herbicidal efficacy against CYPES” value was 70. Moreover, in test [9] (Table V6, pre-emergence, 80 g of a.i./ha), the “Herbicidal efficacy against PHBPU” value is listed as 60.

In the case of `Cn1nnnc1NC(=O)c1ccc(C(F)(F)F)c(C(=O)C2CC2)c1Cl` [1-141], the pest or weed control at 320 g/ha was 100% in test [1]; 100% in test [3]; 100% in test [5]; 80% in test [6]; 100% in [9]. Further, the pest or weed control at 80 g/ha in [2] worked out at 100%; in [4] it was 100%; in [7], 90%; in test [8], 100%.

As for `CC(=O)c1c(S(C)(=O)=O)ccc(C(=O)Nc2nnnn2C)c1Cl` [1-127], the pest or weed control at 320 g/ha in test [1] was found to be 80%; in test [3], 90%; in test [5], 100%; in test [6], 90%; in [9], 90%. For the same compound, the pest or weed control at 80 g/ha in test [4] stood at 100%; in [7], 80%; in test [8], 90%. For the same compound, the “Herbicidal efficacy against AMARE” value in [4] (Table V14, post-emergence) was 100. Besides, the “Herbicidal efficacy against MATIN” value in test [5] (setting [16]) turned out to be 90; in test [5] (Table V4, pre-emergence, 20 g of a.i./ha) it was 70. Also, the “Herbicidal efficacy against POLCO” value in test [6] (Table V1, pre-emergence) is on record as 70.
